# Reference: patent US20140051576A1, “ACTIVE COMPOUND COMBINATIONS COMPRISING A (THIO)CARBOXAMIDE DERIVATIVE AND AN INSECTICIDAL OR ACARICIDAL OR NEMATICIDAL ACTIVE COMPOUND” (priority 2011, published 2014)
# Where two headings read alike, the source gives them in different places.
# Experiments:
# [1] = tested on: Myzus persicae; assay: Myzus persicae - Test (MYZUPE spray application); assay type: in vivo
# From the text: Myzus persicae—Test; (MYZUPE Spray Application)
# Chinese cabbage (Brassica pekinesis) leaf—disks infected with all instars of the green peach aphid (Myzus persicae), are sprayed with a preparation of the active ingredient at the desired concentration.
# 100% means that all aphids have been killed; 0% means that none of the aphids have been killed.
# [2] = tested on: Phaedon cochleariae; assay: Phaedon cochleariae Larvae - Test (PHAECO spray application); assay type: in vivo
# From the text: Phaedon cochleariae—Test; (PHAECO Spray Application)
# Solvent: 78 parts by weight of acetone • 1.5 parts by weight of N,N-dimethylformamide Emulsifier: 0.5 parts by weight of alkylarylpolyglycolether
# Once dry, the leaf discs are infested with mustard beetle larvae (Phaedon cochleariae).
# [3] = tested on: Spodoptera frugiperda; assay: whole plant or invertebrate
# Procedure: Spodoptera frugiperda—Test (SPODFR Spray Application)
# Solvent: 78.0 parts by weight acetone • 1.5 parts by weight N,N-dimethylformamide Emulsifier: 0.5 parts by weight alkylarylpolyglycolether
# Maize (Zea mais) leaf sections are sprayed with a preparation of the active ingredient of the desired concentration. Once dry, the leaf sections are infested with larvae of the fall armyworm (Spodoptera frugiperda).
# After the specified period of time, the mortality in % is determined. 100% means that all caterpillars have been killed and 0% means that none of the caterpillars have been killed.
# [4] = tested on: Tetranychus urticae; assay: Tetranychus urticae - Test; OP-resistant (TETRUR spray application); assay type: in vivo; conditions: for Mortality in % after 6 days obs.: single active ingredient
# From the text: Tetranychus urticae—Test; OP-Resistant (TETRUR Spray Application)
# French beans (Phaseolus vulgaris) which are heavily infested with all stages of the two spotted spidermite (Tetranychus urticae), are sprayed with a preparation of the active ingredient at the desired concentration.
# [5] = Tetranychus urticae, 48 h, read-out: Mortality in % after 2 days obs.
# [6] = Tetranychus urticae, 144 h, read-out: Mortality in % after 6 days obs.
# [7] = Myzus persicae, 24 h, read-out: Mortality in % after 1 day obs.
# [8] = Myzus persicae, 144 h, read-out: Mortality in % after 6 days obs.
# [9] = Phaedon cochleariae, 144 h, read-out: Mortality in % after 6 days obs.
compound,measurement,setting,value
"CNC(=O)O/N=C/C(C)(C)SC [B-1A.2, Aldicarb]",Mortality in % after 6 days obs.,[1]; 20 g/ha,80%
same,Mortality in % after 1 day obs.,[1]; 100 g/ha,0%
same,Mortality in % after 6 days obs.,[2]; 100 g/ha,0%
same,Mortality in % after 2 days obs.,[3]; 100 g/ha,0%
same,Mortality in % after 6 days obs.,[3]; 100 g/ha,33%
"CS/C(C)=N\OC(=O)N(C)SN(C)C(=O)O/N=C(\C)SC [B-1A.21, Thiodicarb]",Mortality in % after 6 days obs.,[4]; 100 g/ha,0%
same,Mortality in % after 6 days obs.,[1]; 100 g/ha,0%
same,Mortality in % after 6 days obs.,[3]; 4 g/ha,0%
same,Mortality in % after 6 days obs.,[3]; 20 g/ha,33%
"CC1(C)[C@H](/C=C(\Cl)C(F)(F)F)[C@@H]1C(=O)O[C@@H](C#N)c1cccc(Oc2ccccc2)c1 [B-3A.12, L-Cyhalothrin]",Mortality in % after 2 days obs.,[4]; 0.16 g/ha,0%
same,Mortality in % after 2 days obs.,[4]; 0.8 g/ha,70%
same,Mortality in % after 6 days obs.,[4]; 0.8 g/ha,70%
same,Mortality in % after 2 days obs.,[2]; 0.8 g/ha,67%
same,Mortality in % after 6 days obs.,[3]; 0.8 g/ha,83%
"CN1COCN(Cc2cnc(Cl)s2)/C1=N\[N+](=O)[O-] [B-4A.7, Thiamethoxam]",mortality at 20 g/ha,[4]; [5],0%
same,mortality at 4 g/ha,[4]; [6],0%
same,mortality at 4 g/ha,[1]; [7],0%
same,mortality at 0.8 g/ha,[1]; [8],70%
same,mortality at 0.8 g/ha,[2]; [9],0%
"N#CCNC(=O)c1cnccc1C(F)(F)F [B-9.2, Flonicamid]",Mortality in % after 6 days obs.,[4]; 100 g/ha,0%
same,Mortality in % after 1 day obs.,[1]; 20 g/ha,0%
same,Mortality in % after 6 days obs.,[1]; 20 g/ha,80%
same,Mortality in % after 6 days obs.,[2]; 20 g/ha,0%
"CCOC(=O)OC1=C(c2cc(C)ccc2C)C(=O)N[C@]12CC[C@@H](OC)CC2 [B-23B.1, Spirotetramat]",mortality at 4 g/ha,[4]; [5],0%
same,mortality at 20 g/ha,[4]; [5],0%
same,mortality at 0.8 g/ha,[4]; [6],70%
same,mortality at 4 g/ha,[1]; [8],70%
same,mortality at 20 g/ha,[1]; [8],70%
same,mortality at 20 g/ha,"[3]; Spodoptera frugiperda, 144 h, read-out: Mortality in % after 6 days obs.",0%
"CNC(=O)c1cc(Cl)cc(C)c1NC(=O)c1cc(Br)nn1-c1ncccc1Cl [B-26.1, Chlorantraniliprole (Rynaxypyr)]",Mortality in % after 6 days obs.,[1]; 0.8 g/ha,0%
same,Mortality in % after 6 days obs.,[2]; 0.8 g/ha,33%
same,Mortality in % after 2 days obs.,[2]; 4 g/ha,50%
same,Mortality in % after 6 days obs.,[2]; 4 g/ha,33%
"CC(c1ccc(C(F)(F)F)nc1)S(C)(=O)=NC#N (stereo not shown) [B-27.27, Sulfoxaflor]",mortality at 4 g/ha,[4]; [6],0%
same,mortality at 0.8 g/ha,[1]; [7],0%
same,mortality at 4 g/ha,[1]; [7],0%
same,mortality at 4 g/ha,[2]; [9],33%
Abamectin [B-6.1],Mortality in % after 2 days obs.,[4]; 0.8 g/ha,70%
same,Mortality in % after 6 days obs.,[2]; 0.16 g/ha,33%
Ethiprole [B-2B.1],Mortality in % after 6 days obs.,[1]; 100 g/ha,0%
Flubendiamide [B-26.3],Mortality in % after 6 days obs.,[4]; 100 g/ha,0%
same,Mortality in % after 6 days obs.,[2]; 4 g/ha,0%
same,Mortality in % after 6 days obs.,[2]; 20 g/ha,50%
same,Mortality in % after 2 days obs.,[3]; 100 g/ha,67%
Imidacloprid [B-4A.4],Mortality in % after 6 days obs.,[4]; 4 g/ha,0%
same,Mortality in % after 1 day obs.,[1]; 0.8 g/ha,0%
same,Mortality in % after 1 day obs.,[1]; 4 g/ha,70%
same,Mortality in % after 1 day obs.,[1]; 20 g/ha,80%
same,Mortality in % after 6 days obs.,[2]; 100 g/ha,67%
Methiocarb [B-1A15],Mortality in % after 6 days obs.,[4]; 100 g/ha,10%
same,Mortality in % after 2 days obs.,[4]; 500 g/ha,0%
same,Mortality in % after 6 days obs.,[2]; 20 g/ha,33%
same,Mortality in % after 2 days obs.,[3]; 500 g/ha,0%
same,Mortality in % after 6 days obs.,[3]; 500 g/ha,33%
Spinetoram [B-5.1],Mortality in % after 2 days obs.,[4]; 0.8 g/ha,30%
same,Mortality in % after 6 days obs.,[4]; 0.8 g/ha,70%
same,Mortality in % after 6 days obs.,[2]; 0.16 g/ha,0%
same,Mortality in % after 6 days obs.,[2]; 0.8 g/ha,0%
same,Mortality in % after 6 days obs.,[2]; 4 g/ha,0%
same,Mortality in % after 2 days obs.,[3]; 0.032 g/ha,0%
same,Mortality in % after 2 days obs.,[3]; 0.8 g/ha,83%
Spinosad [B-5.2],Mortality in % after 2 days obs.,[4]; 0.8 g/ha,0%
same,Mortality in % after 6 days obs.,[4]; 0.8 g/ha,0%
same,Mortality in % after 2 days obs.,[4]; 4 g/ha,0%
same,Mortality in % after 2 days obs.,[4]; 20 g/ha,0%
same,Mortality in % after 6 days obs.,[2]; 0.8 g/ha,0%
same,Mortality in % after 6 days obs.,[2]; 4 g/ha,0%
same,Mortality in % after 2 days obs.,[2]; 20 g/ha,50%
same,Mortality in % after 2 days obs.,[3]; 0.16 g/ha,0%
Thiacloprid [B-4A.6],Mortality in % after 6 days obs.,[4]; 4 g/ha,0%
same,Mortality in % after 2 days obs.,[4]; 100 g/ha,0%
same,Mortality in % after 6 days obs.,[1]; 0.16 g/ha,0%
same,Mortality in % after 1 day obs.,[1]; 0.8 g/ha,70%
same,Mortality in % after 6 days obs.,[1]; 4 g/ha,0%
same,Mortality in % after 6 days obs.,[2]; 20 g/ha,83%
same,Mortality in % after 2 days obs.,[2]; 100 g/ha,0%
